Reference: ChEMBL document CHEMBL2396531, “Hybrid molecule from O2-(2,4-dinitrophenyl)diazeniumdiolate and oleanolic acid: a glutathione S-transferase π-activated nitric oxide prodrug with selective anti-human hepatocellular carcinoma activity and improved stability” (J Med Chem, 2013)

Experiments:
HepG2 [1] = assay: Cytotoxicity against human HepG2 cells after 24 hrs by MTT assay; format: functional, cell-based; conditions: HepG2, 24 h
Bel-7402 [2] = assay: Cytotoxicity against human Bel7402 cells after 72 hrs by MTT assay; format: functional, cell-based; conditions: Bel-7402, 72 h
SMMC-7721 [3] = assay: Cytotoxicity against human SMMC7721 cells after 72 hrs by MTT assay; format: functional, cell-based; conditions: SMMC-7721, 72 h
HepG2 [4] = assay: Cytotoxicity against human HepG2 cells after 72 hrs by MTT assay; format: functional, cell-based; conditions: HepG2, 72 h
HepG2 [5] = assay: Cytotoxicity against human HepG2 cells after 48 hrs by MTT assay; format: functional, cell-based; conditions: HepG2, 48 h
H22 [6] = assay: Antitumor activity against mouse H22 cells […] in mouse assessed as inhibition of tumor growth at 153.8 umol/kg, ip after 14 days relative to vehicle-treated control; format: functional; conditions: 336 h
[7] = Chemical stability in PBS buffer at pH 7.4 in presence of 1 mM GSH at room temperature for 30 mins by spectrophotometry; format: physicochemical; conditions: pH 7.4, 0.5 h
SMMC-7721 [8] = assay: Cytotoxicity against human SMMC7721 cells at 30 uM after 24 hrs by MTT assay; format: functional
HepG2 [9] = assay: Cytotoxicity against human HepG2 cells at 30 uM after 24 hrs by MTT assay; format: functional
[10] = Chemical stability in PBS buffer at pH 7.4 in presence of 4 mM GSH at 37 degC after 15 to 20 mins by HPLC analysis; format: physicochemical
Bel-7402 [11] = assay: Cytotoxicity against human Bel7402 cells at 30 uM after 24 hrs by MTT assay; format: functional
[12] = Metabolic stability in Sprague-Dawley rat plasma at 40 uM after 9 hrs by HPLC analysis; format: ADME, cell-free; conditions: read-out: Stability
H22 [13] = assay: Antitumor activity against mouse H22 cells […] in mouse assessed as inhibition of tumor growth at 9.6 umol/kg, ip after 14 days relative to vehicle-treated control; format: functional; conditions: 336 h
Mus musculus [14] = assay: Acute toxicity in mouse assessed as abnormality in eating at 196.1 umol/kg, ip after 14 days; format: organism-based; conditions: in vivo, 336 h
Plasma = assay: Metabolic stability in Sprague-Dawley rat plasma at 40 uM after 6 hrs by HPLC analysis; format: ADME, cell-free
[15] = (§1) Activity at GSTalpha (unknown origin) by Michaelis-Menten equation; format: ADME; conditions: human
GSTalpha = assay: as §1; format: ADME; conditions: human, GSTalpha enzyme
Mus musculus [16] = assay: Acute toxicity in mouse assessed as abnormality in drinking at 196.1 umol/kg, ip after 14 days; format: organism-based; conditions: in vivo, 336 h
HepG2 [17] = assay: Cytotoxicity against human HepG2 cells assessed as cell viability at 3 uM after 24 hrs by MTT assay; format: functional; conditions: HepG2, 24 h, read-out: Activity
[18] = Chemical stability in PBS buffer at pH 7.4 in presence of 5 mM GSH at 37 degC after 100 mins by HPLC analysis; format: physicochemical; conditions: PBS buffer with 5 mM GSH, read-out: Stability
Mus musculus [19] = assay: Acute toxicity in mouse assessed as mortality at 383.1 umol/kg, ip after 14 days; format: organism-based; conditions: in vivo, 336 h
[20] = Activity at GSTalpha (unknown origin) assessed per mg protein by Michaelis-Menten equation; format: ADME; conditions: human
[21] = Cytotoxicity against human LO2 cells at 1 to 4 uM after 24 hrs by MTT assay; format: cell-based; conditions: l02, 24 h
HepG2 [22] = assay: Cytotoxicity against human HepG2 cells assessed as cell viability at 3 uM after 24 hrs by MTT assay in presence of EA; format: functional; conditions: HepG2, 24 h, read-out: Activity
Mus musculus [23] = assay: Acute toxicity in mouse assessed as activity at 196.1 umol/kg, ip after 14 days; format: organism-based; conditions: in vivo, 336 h
[24] = target: Glutathione S-transferase P (Homo sapiens, UniProt P09211); assay: Activity at GSTpi (unknown origin) assessed as compound decomposition in presence of 1mM GSH at 40 uM by microplate reader analysis; format: ADME
Glutathione S-transferase P, sequence (P09211 whole entry): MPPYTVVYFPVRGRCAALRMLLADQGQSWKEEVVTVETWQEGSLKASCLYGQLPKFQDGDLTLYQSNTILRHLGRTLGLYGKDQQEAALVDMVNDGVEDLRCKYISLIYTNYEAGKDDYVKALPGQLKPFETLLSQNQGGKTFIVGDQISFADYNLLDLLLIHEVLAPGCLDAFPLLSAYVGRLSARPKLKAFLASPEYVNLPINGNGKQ

H22 [25] = assay: Antitumor activity against mouse H22 cells […] in mouse assessed as inhibition of tumor growth at 38.3 umol/kg, ip after 14 days relative to vehicle-treated control; format: functional; conditions: 336 h
HepG2 [26] = assay: Induction of intracellular NO release in human HepG2 cells at 30 uM after 6 hrs by Griess assay relative to JS-K; format: functional
HepG2 [27] = assay: Induction of intracellular NO release in human HepG2 cells at 30 uM after 6 hrs by Griess assay relative to PABA/NO; format: functional
Mus musculus [28] = assay: Acute toxicity in mouse assessed as mortality at 196.1 umol/kg, ip after 14 days; format: organism-based; conditions: in vivo, 336 h
H22 [29] = assay: Antitumor activity against mouse H22 cells […] in mouse assessed as inhibition of tumor growth at 19.2 umol/kg, ip after 14 days relative to vehicle-treated control; format: functional; conditions: 336 h
[30] = Activity at GSTalpha (unknown origin) assessed as compound decomposition in presence of 1mM GSH at 40 uM by microplate reader analysis; format: ADME; conditions: human
Mus musculus [31] = assay: Acute toxicity in mouse assessed as body weight at 196.1 umol/kg, ip after 14 days; format: organism-based; conditions: in vivo, 336 h
[32] = Acute toxicity in ip dosed mouse after 14 days; format: organism-based; conditions: in vivo

## CN(CCO)/[N+]([O-])=N/Oc1cc(NCC(=O)O[C@H]2CC[C@]3(C)[C@H]4CC=C5[C@@H]6CC(C)(C)CC[C@]6(C(=O)O[C@@H]6O[C@H](CO)[C@H](O)[C@H](O)[C@H]6O)CC[C@@]5(C)[C@]4(C)CC[C@H]3C2(C)C)c([N+](=O)[O-])cc1[N+](=O)[O-]
HepG2 [1]
  IC50: 9.59 µM
Bel-7402 [2]
  IC50: 5.68 µM
SMMC-7721 [3]
  IC50: 7.44 µM
HepG2 [4]
  IC50: 3.65 µM
HepG2 [5]
  IC50: 6.65 µM

## O=c1[nH]cc(F)c(=O)[nH]1 [FLUOROURACIL]
H22 [6]
  inhibition in vivo at 153.8 µmol/kg: 57.5%

## CCOC(=O)N1CCN(/[N+]([O-])=N/Oc2ccc([N+](=O)[O-])cc2[N+](=O)[O-])CC1
[7]
  Stability: Stable
HepG2 [1]
  IC50: 12.2 µM
SMMC-7721 [8]
  Cytotoxicity: 67%
Bel-7402 [2]
  IC50: 5.17 µM
SMMC-7721 [3]
  IC50: 7.31 µM
HepG2 [4]
  IC50: 5.19 µM
HepG2 [9]
  Cytotoxicity: 67%
HepG2 [5]
  IC50: 7.12 µM
[10]
  Stability: Unstable
Bel-7402 [11]
  Cytotoxicity: 67%

## C[C@H](Nc1cc(O/N=[N+](\[O-])N(C)CCO)c([N+](=O)[O-])cc1[N+](=O)[O-])C(=O)O[C@H]1CC[C@]2(C)[C@H]3CC=C4[C@@H]5CC(C)(C)CC[C@]5(C(=O)O[C@@H]5O[C@H](CO)[C@H](O)[C@H](O)[C@H]5O)CC[C@@]4(C)[C@]3(C)CC[C@H]2C1(C)C
HepG2 [1]
  IC50: 9.12 µM
Bel-7402 [2]
  IC50: 7.38 µM
SMMC-7721 [3]
  IC50: 8.84 µM
HepG2 [4]
  IC50: 6.91 µM
HepG2 [5]
  IC50: 7.89 µM

## CN(CCO)/[N+]([O-])=N\Oc1cc(N2CCN(CC(=O)O[C@H]3CC[C@]4(C)[C@H]5CC=C6[C@@H]7CC(C)(C)CC[C@]7(C(=O)O[C@@H]7O[C@H](CO)[C@H](O)[C@H](O)[C@H]7O)CC[C@@]6(C)[C@]5(C)CC[C@H]4C3(C)C)CC2)c([N+](=O)[O-])cc1[N+](=O)[O-]
[12]
  remaining at 9 h, 40 µM: 80%
H22 [13]
  inhibition in vivo at 9.6 µmol/kg: 13.4%
[7]
  Stability: Stable
Mus musculus [14]
  Activity: Non-toxic
HepG2 [1]
  IC50: 3.38 µM
SMMC-7721 [8]
  Cytotoxicity: 80%
Plasma
  Stability: Stable
Bel-7402 [2]
  IC50: 1.45 µM
SMMC-7721 [3]
  IC50: 2.3 µM
[15]
  Kcat: 0.72 s⁻¹
GSTalpha
  Km: 264 µM
HepG2 [4]
  IC50: 1.41 µM
HepG2 [9]
  Cytotoxicity: 80%
Mus musculus [16]
  Activity: Non-toxic
HepG2 [17]
  viability at 3 µM: 17%
[18]
  remaining at 100 min: 78%
Mus musculus [19]
  Activity: Toxic
[20]
  Vmax: 1.69 µmol/min
[21]
  Activity: Toxic
HepG2 [22]
  viability at 3 µM: 41.7%
HepG2 [5]
  IC50: 2.11 µM
Mus musculus [23]
  Activity: Non-toxic
[24]
  Activity: Active
H22 [25]
  inhibition in vivo at 38.3 µmol/kg: 68.4%
HepG2 [26]
  Ratio: 2
HepG2 [27]
  Ratio: 2
Mus musculus [28]
  Activity: Non-toxic
H22 [29]
  inhibition in vivo at 19.2 µmol/kg: 36.1%
[30]
  Activity: Active
Bel-7402 [11]
  Cytotoxicity: 80%
Mus musculus [31]
  Activity: Non-toxic
[32]
  LD50 at 336 h: 250 µmol/kg

## CN(CCO)/[N+]([O-])=N\Oc1cc(NCCC(=O)O[C@H]2CC[C@]3(C)[C@H]4CC=C5[C@@H]6CC(C)(C)CC[C@]6(C(=O)O[C@@H]6O[C@H](CO)[C@H](O)[C@H](O)[C@H]6O)CC[C@@]5(C)[C@]4(C)CC[C@H]3C2(C)C)c([N+](=O)[O-])cc1[N+](=O)[O-]
HepG2 [1]
  IC50: 5.45 µM
SMMC-7721 [8]
  Cytotoxicity: >70%
Bel-7402 [2]
  IC50: 2.36 µM
SMMC-7721 [3]
  IC50: 3.97 µM
HepG2 [4]
  IC50: 2.05 µM
HepG2 [9]
  Cytotoxicity: >70%
HepG2 [5]
  IC50: 3.56 µM
Bel-7402 [11]
  Cytotoxicity: >70%
